According to PMC8940841, “A metabolically stable PET tracer for imaging synaptic vesicle protein 2A: synthesis and preclinical characterization of [^18F]SDM-16” (European Journal of Nuclear Medicine and Molecular Imaging, 2021):
Read-outs that look alike come from different tables or passages of the source.

Tests used:
[1] = Plasma radiometabolite analysis during PET scans; format: in vivo, rhesus monkeys

Method for SV2A: A total of 10 PET imaging experiments with [^18F]SDM-16 were performed in rhesus monkeys (Macaca mulatta) according to a protocol approved by the Yale University Institutional Animal Care and Use Committee (IACUC). Four monkeys were studied. […] Body temperature was maintained by a water-jacket heating pad. The animal was attached to a physiological monitor, and vital signs (heart rate, blood pressure, respirations, SPO2, EKG, ETCO2, and body temperature) were continuously monitored. A venous line was inserted in one limb for administration of radiotracer, displacement, and blocking drugs. A catheter was placed in the femoral artery in the other limb for blood sampling. Dynamic PET brain scans were performed on a Focus 220 system (Siemens Medical Solutions, Knoxville, TN, USA) with a reconstructed image resolution of approximately 1.5 mm. After a 9-min transmission scan, the radioligand was injected i.v. over 3 min. by an infusion pump. Dynamic PET scans were performed for 3 h (baseline and blocking scans) or 4 h (displacement scan).
PET images were reconstructed with built-in corrections for attenuation, normalization, scatter, randoms, and deadtime. PET brain images were registered to the animal’s MR image, which was subsequently registered to a brain atlas to define the regions of interest. Dynamic images were reconstructed using a Fourier rebinning and filtered back projection algorithm. A rhesus monkey brain atlas was used for generation of regions of interest (ROIs) and time − activity curves (TACs) for the following ROIs: amygdala, brain stem, caudate nucleus, centrum semiovale (CS), cerebellum, cingulate cortex, frontal cortex, globus pallidus, hippocampus, insula, nucleus accumbens, occipital cortex, pons, putamen, substantia nigra, temporal cortex, and thalamus.
Volume of distribution (VT, mL·cm^−3) values and the first-order kinetic rate constants of tracer (K1) were derived through 1-tissue (1T) compartment kinetic modeling with the metabolite-corrected arterial plasma input function, which was calculated as the product of the fitted total plasma curve and the parent radiotracer fraction curve. Nondisplaceable volume of distribution (VND) and SV2A occupancy by LEV was calculated using the Lassen plot [32]. Nondisplaceable binding potential (BPND) values were calculated from VT values using CS as reference region, or the VND derived from the blocking study, i.e., BPND = (VT, ROI − VT, CS)/ VT, CS or BPND = (VT/VND) -1.

In the case of `Cc1nccn1CN1C[C@@H](c2cc(F)cc([18F])c2)CC1=O` [[^18F]SDM-16, (R)-4-(3-fluoro-5-(fluoro-^18F)phenyl)-1-((2-methyl-1H-imidazol-1-yl)methyl)pyrrolidin-2-one], the “regional BPND range, CS as reference region” value (SV2A) is reported as 0.69-3.90, the “regional BPND range, VND method” value (SV2A) is reported as 2.9-15.1 and the “BPND, VND method” value (SV2A; Amygdala) is reported as 2.92 ± 0.25. The “BPND, VT(CS) method” value (SV2A; Amygdala) was 0.69 ± 0.23, the “BPND, VND method” value (SV2A; Anterior cingulate) was 15.13 ± 4.21 and the “BPND, VT(CS) method” value (SV2A; Anterior cingulate) was 3.90 ± 1.38. The “BPND, VND method” value (SV2A; Brainstem) was 4.93 ± 0.15, the “BPND, VT(CS) method” value (SV2A; Brainstem) was 1.14 ± 0.24 and the “BPND, VND method” value (SV2A; Caudate) was 8.76 ± 0.68. For the same compound, the “BPND, VT(CS) method” value (SV2A; Caudate) was 2.27 ± 0.68, the “BPND, VND method” value (SV2A; Cerebellum) was 9.47 ± 0.65 and the “BPND, VT(CS) method” value (SV2A; Cerebellum) was 2.28 ± 0.53. For the same compound, the “BPND, VND method” value (SV2A; Cingulate cortex) was 14.97 ± 0.28, the “BPND, VT(CS) method” value (SV2A; Cingulate cortex) was 3.77 ± 1.28 and the “BPND, VND method” value (SV2A; Frontal cortex) was 12.72 ± 0.76. The “BPND, VT(CS) method” value (SV2A; Frontal cortex) was 3.24 ± 1.07, the “BPND, VND method” value (SV2A; Globus pallidus) was 6.60 ± 0.33 and the “BPND, VT(CS) method” value (SV2A; Globus pallidus) was 1.61 ± 0.42. The “BPND ratio [^18F]SDM-16/[^11C]UCB-J” value (SV2A; Guo plot) was 1.41, the “BPND ratio [^18F]SDM-16/[^18F]SynVesT-1” value (SV2A; Guo plot) was 0.99 and the “BPND, VND method” value (SV2A; Hippocampus) was 6.55 ± 0.97. For the same compound, the “BPND, VT(CS) method” value (SV2A; Hippocampus) was 1.72 ± 0.44, the “BPND, VND method” value (SV2A; Insular cortex) was 13.77 ± 1.93 and the “BPND, VT(CS) method” value (SV2A; Insular cortex) was 3.54 ± 1.31. The “BPND, VND method” value (SV2A; Nucleus accumbens) was 14.51 ± 0.23, the “BPND, VT(CS) method” value (SV2A; Nucleus accumbens) was 3.48 ± 1.35 and the “BPND, VND method” value (SV2A; Occipital cortex) was 12.62 ± 1.09. The “BPND, VT(CS) method” value (SV2A; Occipital cortex) was 3.49 ± 0.90, the “BPND, VND method” value (SV2A; Putamen) was 11.50 ± 0.8 and the “BPND, VT(CS) method” value (SV2A; Putamen) was 3.00 ± 1.00. For the same compound, the “BPND, VND method” value (SV2A; Temporal cortex) was 12.06 ± 0.54, the “BPND, VT(CS) method” value (SV2A; Temporal cortex) was 3.15 ± 0.52 and the “BPND, VND method” value (SV2A; Thalamus) was 9.46 ± 0.19. For the same compound, the “BPND, VT(CS) method” value (SV2A; Thalamus) was 2.29 ± 0.72, the “BPND with CS VT lower than BPND with VND” value (SV2A; average) was 67% and the “parent fraction in plasma” value ([1]; 30 min p.i.) was 89 ± 5%. For the same compound, the “parent fraction in plasma” value ([1]; 120 min p.i.) was 80 ± 7% and the “plasma to whole-blood ratio” value ([1]; over 180-min acquisition) was 0.93 ± 0.13.
